In paper PMC9284491 (Nature Communications, 2022):
Entries after “also recorded” stand apart in the source; their conditions may differ.

Assay: Treatment-emergent adverse events (MedDRA, NCI-CTCAE v4.03), safety populations
Type: in vivo, human
Protocol: Overall safety in Parts A and B was assessed by tabulating TEAEs, coded using the Medical Dictionary for Regulatory Activities (MedDRA) version 22.1, and graded according to NCI-CTCAE v4.03 criteria. TEAEs were classified as related or unrelated to amcenestrant therapy based upon the local investigating physician’s clinical judgment. The safety population included all patients exposed to at least one dose of the study treatment. Results were analyzed using descriptive statistics.

## O=C(O)c1ccc2c(c1)CCCC(c1ccc(Cl)cc1Cl)=C2c1ccc(O[C@H]2CCN(CCCF)C2)cc1 [amcenestrant, 6-(2,4-Dichlorophenyl)−5-[4-[(3S)−1-(3-fluoropropyl)pyrrolidin-3-yl]oxyphenyl]−8,9-dihydro-7H-benzo[7]annulene-2-carboxylic acid]
Part B, 400 mg QD (N = 49)
  Headache, Treatment-related TEAEs, All Grades: 0 n (%)
  Headache, Treatment-related TEAEs, Grade 1: 0 n (%)
  Headache, Treatment-related TEAEs, Grade 2: 0 n (%)
  Headache, Treatment-related TEAEs, Grade ≥3: 0 n (%)
  Hot flush, TEAEs, All grades: 7 (14.3) n (%)
  Hot flush, TEAEs, Grade 1: 5 (10.2) n (%)
  Hot flush, TEAEs, Grade 2: 2 (4.1) n (%)
  Hot flush, TEAEs, Grade ≥3: 0 n (%)
  Hot flush, Treatment-related TEAEs, All Grades: 5 (10.2) n (%)
  Hot flush, Treatment-related TEAEs, Grade 1: 5 (10.2) n (%)
  Hot flush, Treatment-related TEAEs, Grade 2: 0 n (%)
  Hot flush, Treatment-related TEAEs, Grade ≥3: 0 n (%)
  Hypertension, TEAEs, All grades: 4 (8.2) n (%)
  Hypertension, TEAEs, Grade 1: 0 n (%)
  Hypertension, TEAEs, Grade 2: 4 (8.2) n (%)
  Hypertension, TEAEs, Grade ≥3: 0 n (%)
  Hypertension, Treatment-related TEAEs, All Grades: 1 (2.0) n (%)
  Hypertension, Treatment-related TEAEs, Grade 1: 0 n (%)
  Hypertension, Treatment-related TEAEs, Grade 2: 1 (2.0) n (%)
  Hypertension, Treatment-related TEAEs, Grade ≥3: 0 n (%)
  Nasopharyngitis, TEAEs, All grades: 3 (6.1) n (%)
  Nasopharyngitis, TEAEs, Grade 1: 3 (6.1) n (%)
  Nasopharyngitis, TEAEs, Grade 2: 0 n (%)
  Nasopharyngitis, TEAEs, Grade ≥3: 0 n (%)
  Nasopharyngitis, Treatment-related TEAEs, All Grades: 0 n (%)
  Nasopharyngitis, Treatment-related TEAEs, Grade 1: 0 n (%)
  Nasopharyngitis, Treatment-related TEAEs, Grade 2: 0 n (%)
  Nasopharyngitis, Treatment-related TEAEs, Grade ≥3: 0 n (%)
  Nausea, TEAEs, All grades: 11 (22.4) n (%)
  Nausea, TEAEs, Grade 1: 9 (18.4) n (%)
  Nausea, TEAEs, Grade 2: 1 (2.0) n (%)
  Nausea, TEAEs, Grade ≥3: 1 (2.0) n (%)
  Nausea, Treatment-related TEAEs, All Grades: 2 (4.1) n (%)
  Nausea, Treatment-related TEAEs, Grade 1: 2 (4.1) n (%)
  Nausea, Treatment-related TEAEs, Grade 2: 0 n (%)
  Nausea, Treatment-related TEAEs, Grade ≥3: 0 n (%)
  Pain in extremity, TEAEs, All grades: 3 (6.1) n (%)
  Pain in extremity, TEAEs, Grade 1: 2 (4.1) n (%)
  Pain in extremity, TEAEs, Grade 2: 1 (2.0) n (%)
  Pain in extremity, Treatment-related TEAEs, All Grades: 0 n (%)
  Pain in extremity, Treatment-related TEAEs, Grade 1: 0 n (%)
  Pain in extremity, Treatment-related TEAEs, Grade 2: 0 n (%)
  Pain in extremity, Treatment-related TEAEs, Grade ≥3: 0 n (%)
  Paresthesia, TEAEs, All grades: 3 (6.1) n (%)
  Paresthesia, TEAEs, Grade 1: 3 (6.1) n (%)
  Paresthesia, TEAEs, Grade 2: 0 n (%)
  Paresthesia, TEAEs, Grade ≥3: 0 n (%)
  Paresthesia, Treatment-related TEAEs, All Grades: 1 (2.0) n (%)
  Paresthesia, Treatment-related TEAEs, Grade 1: 1 (2.0) n (%)
  Paresthesia, Treatment-related TEAEs, Grade 2: 0 n (%)
  Paresthesia, Treatment-related TEAEs, Grade ≥3: 0 n (%)
  Pyrexia, TEAEs, All grades: 4 (8.2) n (%)
  Pyrexia, TEAEs, Grade 1: 3 (6.1) n (%)
  Pyrexia, TEAEs, Grade 2: 1 (2.0) n (%)
  Pyrexia, TEAEs, Grade ≥3: 0 n (%)
  Pyrexia, Treatment-related TEAEs, All Grades: 0 n (%)
  Pyrexia, Treatment-related TEAEs, Grade 1: 0 n (%)
  Pyrexia, Treatment-related TEAEs, Grade 2: 0 n (%)
  Pyrexia, Treatment-related TEAEs, Grade ≥3: 0 n (%)
  Rhinitis allergic, TEAEs, All grades: 3 (6.1) n (%)
  Rhinitis allergic, TEAEs, Grade 1: 2 (4.1) n (%)
  Rhinitis allergic, TEAEs, Grade 2: 1 (2.0) n (%)
  Rhinitis allergic, TEAEs, Grade ≥3: 0 n (%)
  Rhinitis allergic, Treatment-related TEAEs, All Grades: 0 n (%)
  Rhinitis allergic, Treatment-related TEAEs, Grade 1: 0 n (%)
  Rhinitis allergic, Treatment-related TEAEs, Grade 2: 0 n (%)
  Rhinitis allergic, Treatment-related TEAEs, Grade ≥3: 0 n (%)
  Urinary tract infection, TEAEs, All grades: 5 (10.2) n (%)
  Urinary tract infection, TEAEs, Grade 1: 0 n (%)
  Urinary tract infection, TEAEs, Grade 2: 5 (10.2) n (%)
  Urinary tract infection, TEAEs, Grade ≥3: 0 n (%)
  Urinary tract infection, Treatment-related TEAEs, All Grades: 1 (2.0) n (%)
  Urinary tract infection, Treatment-related TEAEs, Grade 1: 0 n (%)
  Urinary tract infection, Treatment-related TEAEs, Grade 2: 1 (2.0) n (%)
  Urinary tract infection, Treatment-related TEAEs, Grade ≥3: 0 n (%)
  Vomiting, TEAEs, All grades: 14 (28.6) n (%)
  Vomiting, TEAEs, Grade 1: 10 (20.4) n (%)
  Vomiting, TEAEs, Grade 2: 3 (6.1) n (%)
  Vomiting, TEAEs, Grade ≥3: 1 (2.0) n (%)
  Vomiting, Treatment-related TEAEs, All Grades: 4 (8.2) n (%)
  Vomiting, Treatment-related TEAEs, Grade 1: 4 (8.2) n (%)
  Vomiting, Treatment-related TEAEs, Grade 2: 0 n (%)
  Vomiting, Treatment-related TEAEs, Grade ≥3: 0 n (%)
Part B, 400 mg QD (n = 49)
  treatment-related TEAE arthralgia, patients: 8.2%
  treatment-related TEAE constipation, patients: 6.1%
  treatment-related TEAE gastroesophageal reflux disease, patients: 6.1%
  treatment-related TEAE hot flush, patients: 10.2%
  treatment-related TEAE vomiting, patients: 8.2%
Part B, 13/49
  patients with serious TEAEs: 26.5%
Part B, 16/49, none considered related to amcenestrant
  patients with at least one Grade ≥3 TEAE: 32.7%
Part B, Grade 1 sinus bradycardia
  cardiac non-treatment-related TEAE: One cardiac non-treatment-related TEAE was reported
Parts A and B
  Grade ≥3 treatment-related adverse events: No Grade ≥3 treatment-related adverse events; also recorded: no treatment-related TEAEs of Grade ≥3 occurred
  clinically significant cardiac or eye safety findings: no clinically significant cardiac or eye safety findings were observed
